Assays:
[1] = tested on: MCF-7; experiment: Monolayer proliferation assay (modified propidium iodide assay), MCF-7; assay type: cell-based, human; conditions: MCF-7 (breast), 4 days continuous exposure
Protocol: (§1) In vitro evaluation of compounds for anticancer activity in a panel of human tumour cell lines in a monolayer proliferation assay was carried out at the Oncotest Testing Facility, Institute for Experimental Oncology, Oncotest GmbH, Freiburg.
(§2) The Oncotest cell lines are established from human tumor xenografts as described by Roth et al., (1999). The origin of the donor xenografts was described by Fiebig et al., (1999). Other cell lines were either obtained from the NCI (DU145, MCF-7) or purchased from DSMZ, Braunschweig, Germany.
(§3) All cell lines, unless otherwise specified, were grown at 37° C. in a humidified atmosphere (95% air, 5% CO2) in a ‘ready-mix’ medium containing RPMI 1640 medium, 10% fetal calf serum, and 0.1 mg/mL gentamicin (PAA, Cölbe, Germany).
(§4) A modified propidium iodide assay was used to assess the effects of the test compound(s) on the growth of human tumour cell lines (Dengler et al., (1995)).
(§5) Briefly, cells were harvested from exponential phase cultures by trypsinization, counted and plated in 96 well flat-bottomed microtitre plates at a cell density dependent on the cell line (5-10.000 viable cells/well). […] After thawing the plates, fluorescence was measured using the Cytofluor 4000 microplate reader (excitation 530 nm, emission 620 nm), giving a direct relationship to the total number of viable cells.
(§6) Growth inhibition was expressed as treated/control×100 (% T/C). […]

[2] = tested on: DU145; experiment: Monolayer proliferation assay (modified propidium iodide assay), DU145; assay type: cell-based, human; conditions: DU145 (prostate, PTEN positive), 4 days continuous exposure
Protocol: as §1, §2, §3, §4, §5, §6

[3] = tested on: CXF HT29; experiment: Monolayer proliferation assay (modified propidium iodide assay), CXF HT29; assay type: cell-based, human; conditions: CXF HT29 (colon), 4 days continuous exposure
Protocol: as §1, §2, §3, §4, §5, §6

[4] = tested on: CNXF 498NL; experiment: Monolayer proliferation assay (modified propidium iodide assay), CNXF 498NL; assay type: cell-based, human; conditions: CNXF 498NL (CNS), 4 days continuous exposure
Protocol: as §1, §2, §3, §4, §5, §6

[5] = tested on: MEXF 394NL; experiment: Monolayer proliferation assay (modified propidium iodide assay), MEXF 394NL; assay type: cell-based, human; conditions: MEXF 394NL (melanoma), 4 days continuous exposure
Protocol: as §1, §2, §3, §4, §5, §6

[6] = tested on: LXF 1121L; experiment: Monolayer proliferation assay (modified propidium iodide assay), LXF 1121L; assay type: cell-based, human; conditions: LXF 1121L (lung, large cell ca), 4 days continuous exposure
Protocol: as §1, §2, §3, §4, §5, §6

[7] = molecular target: Hsp90 (Homo sapiens, UniProt P07900); conditions: cited from earlier work
[8] = molecular target: terminal deoxynucleotidyl transferase (Homo sapiens, UniProt P04053); conditions: cited from earlier work
Chain of terminal deoxynucleotidyl transferase (P04053 whole entry, species assumed): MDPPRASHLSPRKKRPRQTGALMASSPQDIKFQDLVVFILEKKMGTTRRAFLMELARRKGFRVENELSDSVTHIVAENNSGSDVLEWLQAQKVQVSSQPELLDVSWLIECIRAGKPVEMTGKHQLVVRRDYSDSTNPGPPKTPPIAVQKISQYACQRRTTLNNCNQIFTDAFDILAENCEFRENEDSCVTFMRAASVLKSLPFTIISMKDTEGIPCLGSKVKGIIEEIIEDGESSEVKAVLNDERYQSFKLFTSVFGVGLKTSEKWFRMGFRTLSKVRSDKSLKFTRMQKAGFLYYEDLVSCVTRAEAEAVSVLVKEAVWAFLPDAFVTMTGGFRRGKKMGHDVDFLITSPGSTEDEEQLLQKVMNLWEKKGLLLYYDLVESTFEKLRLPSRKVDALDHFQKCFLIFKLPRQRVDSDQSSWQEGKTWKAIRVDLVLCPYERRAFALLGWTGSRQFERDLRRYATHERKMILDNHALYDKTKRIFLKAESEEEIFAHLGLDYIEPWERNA

[9] = tested on: Reverse transcriptase; conditions: cited from earlier work

## 15-desmethoxy macbecin [compound 15]
[1]; 1 μg/mL
  Test/Control (%) at drug concentration: 53.3%
[1]; 10 μg/mL
  Test/Control (%) at drug concentration: 13%
[2]; 1 μg/mL
  Test/Control (%) at drug concentration: 30.3%
[2]; 10 μg/mL
  Test/Control (%) at drug concentration: 6.3%
[3]; 1 μg/mL
  Test/Control (%) at drug concentration: 54.7%
[3]; 10 μg/mL
  Test/Control (%) at drug concentration: 13%
[4]; 1 μg/mL
  Test/Control (%) at drug concentration: 44.3%
[4]; 10 μg/mL
  Test/Control (%) at drug concentration: 12.7%
[5]; 1 μg/mL
  Test/Control (%) at drug concentration: 24.3%
[5]; 10 μg/mL
  Test/Control (%) at drug concentration: 4.7%
[6]; 1 μg/mL
  Test/Control (%) at drug concentration: 47.7%
[6]; 10 μg/mL
  Test/Control (%) at drug concentration: 14.7%

## CO[C@H]1C[C@H](C)Cc2cc(O)cc(c2)NC(=O)/C=C/CC[C@H](OC)[C@@H](OC(N)=O)/C(C)=C/[C@H](C)[C@H]1O [KOSN1559]
[7]; relative to 17-AAG
  binding affinity to Hsp90, greater than 17-AAG: 8 fold
[7]; relative to geldanamycin
  binding affinity to Hsp90, greater than geldanamycin: 4 fold

## CO[C@H]1[C@@H](OC)C[C@H](C)[C@@H](OC)C2=CC(=O)C=C(NC(=O)/C(C)=C/C=C\[C@H](C)[C@@H](OC(N)=O)/C(C)=C/[C@@H]1C)C2=O [Macbecin, macbecin]
[8]
  terminal deoxynucleotidyl transferase activity inhibition: not inhibited
[9]
  Reverse transcriptase activity inhibition: not inhibited

From patent publication US20090298804A1, “Novel Compounds and Methods for Their Production” (priority 2006, published 2009)
